# Experiments:
# [1] = cited from earlier work
# CD3 T cells = conditions: activated CD3 T cells, 3 μM or 10 μM, 72 hours
# Experimental: Lymph nodes and spleen were isolated from wild-type C57BL/6N mice. Tissue was mechanically dissociated with the back of a syringe plunger and passed through a 70 M filter. […] Treated cells were incubated at 37° C., 5% CO2 for the designed study duration.
# Protein concentration was quantified using a BCA protein assay kit (Thermo #A53225). […] of protein diluted with 1×LDS sample buffer (Life Technologies #B0008) and 1×sample reducing agent (Life Technologies #B0009), were denatured at 95° C. for 5 minutes. Denatured T cell protein was resolved using a 10% Bolt Bis-Tris plus protein gel (Thermo #NW00102BOX) and denatured BM-MDSC protein was resolved using an 8% Bolt Bis-Tris plus protein gel (Thermo #NW00082BOX). Gels were transferred to a PVDF membrane (Invitrogen #IB401002) using a seven-minute P3 program on an Invitrogen iBlot dry transfer system. Membranes were then blocked for one hour using 5% nonfat dry milk in TBS-T, washed three times with TBS-T and probed with primary antibody diluted with 5% BSA in TBS-T overnight at 4° C. with gentle rocking. Primary antibody was removed, and membranes were washed three times with TBS-T followed by secondary antibody diluted in TBS-T at room temperature for one hour with gentle rocking. […] Secondary antibodies used were anti-mouse-HRP (Kindle Biosciences #R1005) and anti-rabbit-HRP (Kindle Biosciences #R1006). […]
# BM-MDSCs [2] = test: XFe ATP rate assay, BM-MDSCs; assay type: cell-based, mouse; conditions: 10 μM, 72 hours
# Experimental: (§1) Bone marrow cells were isolated by flushing the tibia and femurs of wild-type C57BL/6N mice. […] To generate BM-MDSCs, 3×10^6 cells were plated in a 6-well dish and incubated at 37° C., 5% CO2 for 96 hours. For treatment, drugs were administered at either 3 μM or 10 μM concentrations and added to the BM-MDSC cell culture well 24 hours after plating.
# Treated CD8 T cell were prepared following the in vitro T cell activation method and incubated for 72 hours at 37° C., 5% CO2. Treated BM-MDSCs were prepared followed the in vitro BM-MDSCs differentiation method. The XFe ATP rate assay preparation and analysis was conducted following the manufacturer's user guide and instructions. […] Treated cells were removed from culture, pelleted and resuspended in warm assay medium at a concentration of 3×10^6 cells/ml (1.5×10^5 cells/well) for CD8 T cells and 2.6×10^6 cells/ml (1.3×10^5 cells/well) for BM-MDSCs. Cells were adhered to the culture plate by centrifugation 200×G, for one minute with zero brake per the manufacturer's instructions for immobilization of non-adherent cells (Agilent, Santa Clara, CA). […] Results were procured using the Seahorse XF real-time ATP rate assay report generator.
# BM-MDSCs [3] = conditions: differentiating BM-MDSCs, 3 μM or 10 μM, 72 hours
# Experimental: as §1
# Protein concentration was quantified using a BCA protein assay kit (Thermo #A53225). […] of protein diluted with 1×LDS sample buffer (Life Technologies #B0008) and 1×sample reducing agent (Life Technologies #B0009), were denatured at 95° C. for 5 minutes. Denatured T cell protein was resolved using a 10% Bolt Bis-Tris plus protein gel (Thermo #NW00102BOX) and denatured BM-MDSC protein was resolved using an 8% Bolt Bis-Tris plus protein gel (Thermo #NW00082BOX). Gels were transferred to a PVDF membrane (Invitrogen #IB401002) using a seven-minute P3 program on an Invitrogen iBlot dry transfer system. Membranes were then blocked for one hour using 5% nonfat dry milk in TBS-T, washed three times with TBS-T and probed with primary antibody diluted with 5% BSA in TBS-T overnight at 4° C. with gentle rocking. Primary antibody was removed, and membranes were washed three times with TBS-T followed by secondary antibody diluted in TBS-T at room temperature for one hour with gentle rocking. […]
# OT-I CD8 T cells = test: In vitro cytotoxicity assay (E.G7-OVA target cells); assay type: cell-based, mouse; conditions: CD8 T cells treated 72 hours (10 μM printed for GLPG1205)
# Experimental: Lymph nodes and spleen were isolated from wild-type C57BL/6N mice. Tissue was mechanically dissociated with the back of a syringe plunger and passed through a […]. […] Treated cells were incubated at 37° C., 5% CO2 for the designed study duration. Treated OT-I CD8 T cells were prepared following the in vitro T cell activation method. Non-target EL4 cells (CFSE low—0.2 μM) and target E.G7-OVA cells (CFSE high—[…]) were prepared following the CFSE labeling protocol. Cells were subsequently washed, pelleted, resuspended at 1×10^6 cells/ml, and mixed at 1:1 ratio. 100 μl of the mixed cells were plated into a 96-well flat bottom plate.
# B16-OVA = test: In vivo adoptive cellular transfer, OT-I, B16-OVA tumor; design: species or system mouse
# Experimental: C57BL/6N mice were injected with 3×10^5 B16-OVA or B16 subcutaneously in the right flank. Five days after injection, mice were administered 200 μg cyclophosphamide monohydrate (Sigma #C73971G) dissolved in PBS by intraperitoneal injection to induce minor lymphodepletion. 48 hours after lymphodepletion, mice were intravenously adoptively transferred 2.5×10^6 CD8 OT-I or CD8 […] pre-treated ex vivo following the in vitro T cell activation method. Tumor growth rates were determined by tumor volume measurement beginning on day four and continuing three times per week for the study duration. Tumor volumes were determined by the ellipsoid formula: [(Length×Width^2)/2]. At the end of study, tumors were either fixed in 10% formalin or dissociated into a single-cell suspension for flow cytometry. […] Cells were then counted, filtered through a 70 μm cell strainer, and 10×10^6 cells were aliquoted and stained following the immune profiling by flow cytometry method.
# [4] = tested on: adoptively transferred CD8 OT-I T cells; test: Immune profiling and proliferation of in vivo vaccinated CD8 T cells; design: species or system mouse; conditions: for OT-I CD8 T cell proliferation, lymph node: vehicle MC 49.37%; for effector/memory CD8 OT-I T cells, splenic compartment: vehicle MC 12.53%; for adoptively transferred cells expressing PD-1, lymph node: vehicle MC 12.58%; for effector/memory CD8 OT-I T cells, lymph node: vehicle MC 23.11%; for OT-I CD8 T cell proliferation, splenic compartment: vehicle MC 30.68%; for naïve CD8 OT-I T cells, splenic compartment: vehicle MC 46.68%; for naïve CD8 OT-I T cells, lymph node: vehicle MC […]
# Experimental: Five hours later, mice were vaccinated by subcutaneous injection with […] (SEQ ID NO: 1) in IFA. 16 hours after vaccination, mice were administered 30 mg/kg or 90 mg/kg GLPG1205 suspended in 0.5% methylcellulose (Sigma #M0430100G) with 0.5% Tween-80 (Sigma #P4780100ML) (MC) orally once daily for three days. 96 hours post-vaccination, lymph node and spleen tissue were isolated for analysis. Single-cell suspensions were treated with ACK lysis to remove red blood cells, and then stained following the immune profiling by flow cytometry method. Treatment effectiveness was determined by the percent proliferation and PD-1 expression of adoptively transferred cells.
smiles,measurement,setting,value
"O=c1nc(OC[C@@H]2COCCO2)cc2n1CCc1cc(C#CC3CC3)ccc1-2 [GLPG1205, 9-Cyclopropylethynyl-2-((S)-1-[1,4]dioxan-2-ylmethoxy)-6,7-dihydropyrimido[6,1-a]isoquinolin-4-one]",inflammatory response in ulcerative colitis,[1]; in vivo,unable to improve the inflammatory response
same,adverse outcome in ulcerative colitis study,[1]; led to the drug's discontinuation,worsening of colitis in certain patients
same,GPR84 expression,CD3 T cells,did not significantly affect GPR84 expression
same,energetic phenotype (energetic map),BM-MDSCs [2],glycolytic-predominant quiescent phenotype
same,percent of ATP generated by glycolysis,BM-MDSCs [2]; DMSO 39.85%,45.55%
same,percent of ATP generated by OXPHOS,BM-MDSCs [2]; DMSO 60.15%,54.45%
same,ATP production rate through mitochondrial OXPHOS,BM-MDSCs [2]; DMSO 690.95,537.83 pmol/min
same,total ATP production rate,BM-MDSCs [2]; DMSO control 1149.1,987.48 pmol/min
same,ECAR and PER,BM-MDSCs [2]; vs DMSO,did not observe any changes
same,OCR,BM-MDSCs [2]; vs DMSO,overall reduction in OCR
same,GPR84 expression,BM-MDSCs [3],only neared statistical significance
same,killing capacity compared to DMSO control (percent specific lysis),OT-I CD8 T cells,significantly improved killing capacity
same,anti-tumor response (tumor volume) after adoptive transfer of pre-treated CD8 OT-I T cells,"B16-OVA; T cells pre-treated ex vivo with 10 μM, B16-OVA tumor bearing mice, vs sham and DMSO pre-treated",significantly enhanced this anti-tumor effect
same,intratumoral CD8 T cells positive for SIINFEKL tetramer,"B16-OVA; T cells pre-treated with 10 μM, sham 20%, DMSO pre-treated 27.6%",53.7%
same,"PD-1 expression, splenic compartment, compared to MC vehicle",[4]; 30 mg/kg or 90 mg/kg,no significant increase
same,"OT-I CD8 T cell proliferation, lymph node",[4]; 30 mg/kg orally once daily for 3 days,73.84%
same,"effector/memory CD8 OT-I T cells, splenic compartment",[4]; 30 mg/kg,30.12%
same,"adoptively transferred cells expressing PD-1, lymph node",[4]; 30 mg/kg,16.05%
same,"effector/memory CD8 OT-I T cells, lymph node",[4]; 30 mg/kg,47.38%
same,"OT-I CD8 T cell proliferation, splenic compartment",[4]; 30 mg/kg,50.99%
same,"naïve CD8 OT-I T cells, splenic compartment",[4]; 30 mg/kg,26.16%
same,"naïve CD8 OT-I T cells, lymph node",[4]; 30 mg/kg,12.87%
same,"OT-I CD8 T cell proliferation, lymph node",[4]; 90 mg/kg orally once daily for 3 days,74.56%
same,"adoptively transferred cells expressing PD-1, lymph node","[4]; 90 mg/kg, non-significant increase",15.75%
same,"effector/memory CD8 OT-I T cells, splenic compartment",[4]; 90 mg/kg,37.72%
same,"effector/memory CD8 OT-I T cells, lymph node",[4]; 90 mg/kg,53.97%
same,"OT-I CD8 T cell proliferation, splenic compartment",[4]; 90 mg/kg,59.35%
same,"naïve CD8 OT-I T cells, splenic compartment",[4]; 90 mg/kg,16.37%
same,"naïve CD8 OT-I T cells, lymph node",[4]; 90 mg/kg,9.48%

# Source: patent publication US20240358705A1, “COMPOSITIONS AND METHODS FOR TREATMENT OF CANCER” (Board of Supervisors of Louisiana State University and …, priority 2021, published 2024)
